Laboratory results from US5130300A, “Method for enhancing growth of mammary parenchyma” (Monsanto Company, priority 1987, dated 1992).

Key:
[1] = test system: Quarter-Udders in Pregnant Beef Cattle; test: Intramammary infusion of prostaglandin E1 or E2, quarter-udder weights and DNA (Examples 25-28); format: in vivo, cross-bred beef cows; conditions: for DNA, % Increase, (A-B)/B / DNA, Mean Increase (A-B) / Dry Weight, % Increase, (A-B)/B / Dry Weight, Mean Increase (A-B) / Wet Weight, % Increase, (A-B)/B / Wet Weight, Mean Increase (A-B) / Dry Fat-Free Weight, % Increase, (A-B)/B / Dry Fat-Free Weight, Mean Increase (A-B): B = excipient only
Description: 24 pregnant, non-lactating, cross-bred beef cows in their last 45-105 days of gestation were housed in a free-stall facility, fed a ration of alfalfa hay and pelleted concentrate, and administered 5 ml of an excepient (MCT-Oil, a Mead Johnson Corp. medium chain triglyceride which is a lipid fraction of coconut oil consisting primarily of triglycerides of C8 and C10 fatty acids as follows: C8 -67%; C10 -23%; <C8 -6%; >C10 -4%) into each quarter-udder by intramammary infusion through the streak cannal on days 1, 3, 5, 7 and 9 of this study. The 48 front and rear udder halves were randomly divided into 4 groups, with one quarter of each udder half treated and its laterally opposite quarter-udder used as a control. In the treatment infusions, the excipient contained Prostaglandin (PG) E1 or E2 from Sigma Chemical Co., St. Louis, Mo. (Catalog Nos. 86F-0406 and -0404). The amounts of PG in each infusion were: Group 1-87.5 micrograms of E2; Group 2-875 micrograms of E2; Group 3-87.5 micrograms of E1; Group 4-875 micrograms of E1. Animals were prepared and infused as in Examples 23-24; the effects were determined as in Examples 1-2. Results for Groups 1-4 are in Tables 15-18, respectively.

[2] = test system: Quarter-Udders in Pregnant Beef Cows; test: Intramammary infusion of hEGF or mEGF, quarter-udder weights and DNA (Examples 1-2); format: in vivo, cross-bred beef cows; conditions: 25 micrograms per infusion, days 1,3,5,7,9, Freund's emulsion
Description: 12 pregnant, non-lactating, cross-bred beef cows within their last 40-80 days of gestation were housed in a free-stall facility, fed a ration of alfalfa hay and pelleted concentrate, and administered 10 ml of an excipient (Freund's Incomplete Adjuvant emulsified with an equal volume of 0.9% sterile saline) into each quarter-udder by intramammary infusion through the streak canal on days 1, 3, 5, 7 and 9 of this study. Infusions were carried out using a 3.2 centimeter long, approximately 12 gauge, blunt-tipped plastic teat infusion cannula obtained from Jorgensen Laboratories, Loveland, Colo. Because front and rear udder halves are not of equal size, treatment vs. control comparisons were made between laterally opposite quarters, i.e., front right vs. front left and rear right vs. rear left. Treatments were randomly assigned to right or left udder-halves, with the contralateral half serving as its control. […] (the other 6 animals).
Prior to treatment, each animal was teatdipped for 3 consecutive days and each teat was pre-cleaned with 70% ethanol in water on the day of treatment. On day 14 the cows were sacrificed and their mammary glands excised. Each udder (milked out if necessary) was skinned, divided along the median suspensory ligament and then into front right, front left, rear right and rear left udder quarters. Each quarter-udder was ground, a representative 200 gm sample was homogenized with 4 times its volume of water, and the total homogenate volume of each was measured.
To determine dry weight of each quarter-udder, three 10 ml aliquots of a 1:5 diluted homogenate were placed in pre-weighed pans, dried overnight at 60° and then dried and weighed to a consistent value.
To determine dry fat-free tissue weight of each quarter-udder, three 5 ml aliquots of the undiluted homogenate were extracted by the method of Anderson, 41 J. Anim. Sci. 118 (1975) except that samples were placed in pre-weighed 25×150 mm glass centrifuge tubes and extracted overnight with 10 ml ethanol:ether (3:1), then centrifuged (5 min at 500 rpm) and the supernatant aspirated; an additional 10 ml aliquot of ethanol:ether was added for a second extraction; and the sample was dried under nitrogen until a consistent value was obtained.
DNA in each quarter-udder was determined by the method of Burton, 12B Methods in Enzymol. 163-66 (1968) using an assay solution of 15% trichloroacetic acid (TCA) in 2N HCl. In these determinations, aliquots of gland homogenate were diluted 1:5 with water and rehomogenized. Using triplicate 0.25 ml or 0.5 ml aliquots of these homogenates, each aliquot was mixed with 2 ml of the assay solution. After 30 min, the samples were centrifuged for 10 min at 3000 rpm and the resulting pellets were washed with 2 ml of a 10% solution of TCA in distilled water. After recentrifugation, the resulting pellets were disrupted in 2 ml of 0.5N perchloric acid and heated for 30 min at 70° to extract DNA. Samples were centrifuged and 1 ml of each resulting supernatant was placed in a 12×75 mm tube. After addition of 2 ml of a solution of 1.5 g diphenylamine and 1.5 ml H2 SO4 in 100 ml glacial acetic acid (and 0.1 ml of 1.6% aqueous acetaldehyde per 20 ml reagent just prior to use), the samples were vortexed and incubated overnight at 27°. Calf thymus DNA was the standard.

[3] = total of 0.4375 milligrams (87.5 micrograms per infusion) in MCT-Oil
[4] = total of 0.4375 milligrams in MCT-Oil
[5] = total of 4.375 milligrams (875 micrograms per infusion) in MCT-Oil
[6] = total of 4.375 milligrams in MCT-Oil
[7] = B = opposite quarter, excipient only

CCCCC[C@H](O)/C=C/[C@H]1[C@H](O)CC(=O)[C@@H]1CCCCCCC(=O)O [Prostaglandin E1, [11α,13E,15S]-11,15-Dihydroxy-9-oxoprost-13-en-1-oic acid]
DNA, Treatment Mean [1, 3]: 2881 mg | Dry Fat-Free Weight, Treatment Mean [1, 3]: 180.9 g | Dry Weight, Treatment Mean [1, 3]: 259.3 g | Wet Weight, Treatment Mean [1, 3]: 972.5 g | DNA, % Increase, (A-B)/B [1, 4]: 26% | DNA, Mean Increase (A-B) [1, 4]: 597 mg | Dry Weight, % Increase, (A-B)/B [1, 4]: 23.0% | Dry Weight, Mean Increase (A-B) [1, 4]: 48.7 g | Wet Weight, % Increase, (A-B)/B [1, 4]: 25.0% | Wet Weight, Mean Increase (A-B) [1, 4]: 194.5 g | DNA, Treatment Mean [1, 5]: 4218 mg | Dry Fat-Free Weight, Treatment Mean [1, 5]: 247.7 g | Dry Weight, Treatment Mean [1, 5]: 379.6 g | Wet Weight, Treatment Mean [1, 5]: 1435.5 g | DNA, % Increase, (A-B)/B [1, 6]: 51.1% | DNA, Mean Increase (A-B) [1, 6]: 1426 mg | Dry Fat-Free Weight, % Increase, (A-B)/B [1, 6]: 31.0% | Dry Fat-Free Weight, Mean Increase (A-B) [1, 6]: 58.7 g | Dry Weight, % Increase, (A-B)/B [1, 6]: 41.5% | Dry Weight, Mean Increase (A-B) [1, 6]: 111.4 g | Wet Weight, % Increase, (A-B)/B [1, 6]: 51.2% | Wet Weight, Mean Increase (A-B) [1, 6]: 486.2 g

CCCCC[C@H](O)/C=C/[C@H]1[C@H](O)CC(=O)[C@@H]1C/C=C\CCCC(=O)O [Prostaglandin E2, [5Z,11α,13E,15S]-11,15-Dihydroxy-9-oxoprosta-5,13-dien-1-oic acid]
DNA, Treatment Mean [1, 3]: 5203 mg | Dry Fat-Free Weight, Treatment Mean [1, 3]: 351.8 g | Dry Weight, Treatment Mean [1, 3]: 525.5 g | Wet Weight, Treatment Mean [1, 3]: 1966.9 g | DNA, % Increase, (A-B)/B [1, 4]: 10.1% | DNA, Mean Increase (A-B) [1, 4]: 479 mg | Dry Fat-Free Weight, % Increase, (A-B)/B [1, 4]: 18.1% | Dry Fat-Free Weight, Mean Increase (A-B) [1, 4]: 54.0 g | Dry Weight, % Increase, (A-B)/B [1, 4]: 8.3% | Dry Weight, Mean Increase (A-B) [1, 4]: 40.6 g | Wet Weight, % Increase, (A-B)/B [1, 4]: 13.3% | Wet Weight, Mean Increase (A-B) [1, 4]: 231.4 g | DNA, Treatment Mean [1, 5]: 3397 mg | Dry Fat-Free Weight, Treatment Mean [1, 5]: 194.5 g | Dry Weight, Treatment Mean [1, 5]: 312.7 g | Wet Weight, Treatment Mean [1, 5]: 1030.8 g | DNA, % Increase, (A-B)/B [1, 6]: 44.6% | DNA, Mean Increase (A-B) [1, 6]: 1049 mg | Dry Fat-Free Weight, % Increase, (A-B)/B [1, 6]: 34.8% | Dry Fat-Free Weight, Mean Increase (A-B) [1, 6]: 50.2 g | Dry Weight, % Increase, (A-B)/B [1, 6]: 42.8% | Dry Weight, Mean Increase (A-B) [1, 6]: 93.7 g | Wet Weight, % Increase, (A-B)/B [1, 6]: 38.9% | Wet Weight, Mean Increase (A-B) [1, 6]: 288.8 g

mEGF: mouse EGF, culture-grade, from mouse submaxillary glands, Collaborative Research Corp. Catalog No. 40001 (NSYPGCPSSYDGYCLNGGVCMHIESLDSYTCNCVIGYSGDRCQTRDLRWWELR; not fully specified; Epidermal growth factor; UniProt P01132 977-1029, looked up)
DNA, % Increase, (A-B)/B [2, 7]: 13.8% | DNA, Mean Increase (A-B) [2, 7]: 110.2 mg | Dry Fat-Free Weight, % Increase, (A-B)/B [2, 7]: 7.9% | Dry Fat-Free Weight, Mean Increase (A-B) [2, 7]: 5.0 g | Dry Weight, % Increase, (A-B)/B [2, 7]: 1.6% | Dry Weight, Mean Increase (A-B) [2, 7]: 2.3 g | Wet Weight, % Increase, (A-B)/B [2, 7]: 4.4% | Wet Weight, Mean Increase (A-B) [2, 7]: 17.6 g | DNA, Treatment Mean ([2]; day 14): 905.1 mg | Dry Fat-Free Weight, Treatment Mean ([2]; day 14): 69.6 g | Dry Weight, Treatment Mean ([2]; day 14): 150.2 g | Wet Weight, Treatment Mean ([2]; day 14): 419.6 g | DNA, Avg % Increase/Animal ([2]; vs excipient-only quarter): 12.0% | Dry Fat-Free Weight, Avg % Increase/Animal ([2]; vs excipient-only quarter): 5.2% | Dry Weight, Avg % Increase/Animal ([2]; vs excipient-only quarter): 2.1% | Wet Weight, Avg % Increase/Animal ([2]; vs excipient-only quarter): 1.8%
